Test results taken from patent publication US12552775B2, “Compounds and uses thereof” (Foghorn Therapeutics Inc., priority 2020, dated 2026).

What was measured:
HiBit-BRM fusion protein = biological target: T1, HiBit-BRM fusion protein (Homo sapiens, UniProt P51531); experiment: HiBiT-BRM cell-based degradation assay (Nano-Glo HiBiT Lytic Detection, 24 h); conditions: stable HeLa cell line expressing HiBiT-BRM, top dose 30 μM
T1 construct: expressed in transfected cells
Method: (§1) Procedure: A stable HeLa cell line expressing HiBiT-BRM was generated. On day 0, 5000 cells were seeded in 40 μL of media into each well of 384-well cell culture plates. On day 1, cells were treated with 120 nL DMSO or 120 nL of 3-fold serially DMSO-diluted compounds (10 points in duplicate with 30 μM as final top dose). Subsequently plates were incubated for 24 h in a standard tissue culture incubator and equilibrated at room temperature for 15 minutes. Nano-Glo HiBiT Lytic Detection System (Promega N3050) reagent was freshly prepared and 20 ul was added to each well. Upon addition of this LgBit-containing reagent, the HiBiT and LgBiT proteins associate to form the luminescent NanoBiT luciferase. The plates were shaken for 10 minutes at room temperature and the bioluminescence read using an EnVision plate reader (PerkinElmer).
(§2) The degradation % was calculated using the following formula: % degradation=100%−100%×(Lumsample−LumLC)/(LumHC−LumLC). DMSO treated cells are employed as High Control (HC) and 2 μM of a known BRM/BRG1 degrader standard treated cells are employed as Low Control (LC).

[1] = biological target: T2, HiBit-BRG1 fusion protein (Homo sapiens, UniProt P51532); experiment: HiBiT-BRG1 cell-based degradation assay (Nano-Glo HiBiT Lytic Detection, 24 h); conditions: stable HeLa cell line expressing HiBit-BRG1 and LgBit, top dose 30 μM, read-out: BRG1 HiBit Degradation Maximum (%)
T2 construct: expressed in transfected cells
T2 sequence (P51532 whole entry, the tested form may be a part): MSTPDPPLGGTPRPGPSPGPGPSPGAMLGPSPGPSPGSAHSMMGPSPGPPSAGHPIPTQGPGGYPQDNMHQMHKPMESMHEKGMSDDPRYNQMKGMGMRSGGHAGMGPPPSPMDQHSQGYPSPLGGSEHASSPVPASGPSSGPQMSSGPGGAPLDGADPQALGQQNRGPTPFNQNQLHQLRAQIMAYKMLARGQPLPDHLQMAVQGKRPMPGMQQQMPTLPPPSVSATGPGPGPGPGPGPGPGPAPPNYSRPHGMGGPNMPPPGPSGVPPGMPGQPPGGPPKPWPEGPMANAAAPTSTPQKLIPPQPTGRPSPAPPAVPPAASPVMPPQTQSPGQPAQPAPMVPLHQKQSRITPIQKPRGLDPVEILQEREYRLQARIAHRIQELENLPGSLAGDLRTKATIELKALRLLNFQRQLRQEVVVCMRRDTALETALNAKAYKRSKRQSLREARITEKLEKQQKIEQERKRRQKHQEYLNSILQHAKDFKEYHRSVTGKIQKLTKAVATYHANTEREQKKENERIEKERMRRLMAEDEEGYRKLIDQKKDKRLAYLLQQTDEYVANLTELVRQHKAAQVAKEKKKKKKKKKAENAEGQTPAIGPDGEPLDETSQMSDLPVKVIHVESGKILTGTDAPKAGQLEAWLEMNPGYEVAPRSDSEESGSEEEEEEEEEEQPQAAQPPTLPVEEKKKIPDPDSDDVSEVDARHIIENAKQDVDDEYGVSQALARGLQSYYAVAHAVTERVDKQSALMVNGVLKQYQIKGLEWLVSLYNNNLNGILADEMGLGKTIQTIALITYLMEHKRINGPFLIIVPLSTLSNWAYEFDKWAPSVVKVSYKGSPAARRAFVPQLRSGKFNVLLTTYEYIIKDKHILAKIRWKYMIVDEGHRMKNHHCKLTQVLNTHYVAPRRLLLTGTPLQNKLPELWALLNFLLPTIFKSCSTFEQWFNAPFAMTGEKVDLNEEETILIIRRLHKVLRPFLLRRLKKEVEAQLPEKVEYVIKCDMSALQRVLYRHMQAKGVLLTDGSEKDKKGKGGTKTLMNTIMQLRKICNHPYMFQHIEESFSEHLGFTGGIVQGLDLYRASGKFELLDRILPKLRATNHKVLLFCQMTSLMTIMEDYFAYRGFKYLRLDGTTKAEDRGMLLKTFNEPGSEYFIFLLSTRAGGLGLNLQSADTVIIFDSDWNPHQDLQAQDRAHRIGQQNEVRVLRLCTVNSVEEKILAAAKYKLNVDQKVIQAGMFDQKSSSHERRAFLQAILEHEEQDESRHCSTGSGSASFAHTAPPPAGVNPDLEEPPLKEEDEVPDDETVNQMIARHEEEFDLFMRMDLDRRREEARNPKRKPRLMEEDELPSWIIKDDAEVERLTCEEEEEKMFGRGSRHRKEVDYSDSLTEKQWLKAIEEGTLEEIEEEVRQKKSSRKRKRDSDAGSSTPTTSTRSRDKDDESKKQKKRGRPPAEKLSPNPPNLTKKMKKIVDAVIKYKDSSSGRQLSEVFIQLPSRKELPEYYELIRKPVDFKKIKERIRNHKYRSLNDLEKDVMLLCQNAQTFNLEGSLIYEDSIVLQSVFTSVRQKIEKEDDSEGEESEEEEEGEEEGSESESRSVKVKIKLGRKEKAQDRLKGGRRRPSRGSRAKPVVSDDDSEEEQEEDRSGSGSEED
Method: as §1
For measurement of BRG1 degradation, a stable HeLa cell line expressing HiBit-BRG1 and LgBit was generated. The same protocol as above was then followed.
as §2

T1 sequence (P51531 whole entry, the tested form may be a part): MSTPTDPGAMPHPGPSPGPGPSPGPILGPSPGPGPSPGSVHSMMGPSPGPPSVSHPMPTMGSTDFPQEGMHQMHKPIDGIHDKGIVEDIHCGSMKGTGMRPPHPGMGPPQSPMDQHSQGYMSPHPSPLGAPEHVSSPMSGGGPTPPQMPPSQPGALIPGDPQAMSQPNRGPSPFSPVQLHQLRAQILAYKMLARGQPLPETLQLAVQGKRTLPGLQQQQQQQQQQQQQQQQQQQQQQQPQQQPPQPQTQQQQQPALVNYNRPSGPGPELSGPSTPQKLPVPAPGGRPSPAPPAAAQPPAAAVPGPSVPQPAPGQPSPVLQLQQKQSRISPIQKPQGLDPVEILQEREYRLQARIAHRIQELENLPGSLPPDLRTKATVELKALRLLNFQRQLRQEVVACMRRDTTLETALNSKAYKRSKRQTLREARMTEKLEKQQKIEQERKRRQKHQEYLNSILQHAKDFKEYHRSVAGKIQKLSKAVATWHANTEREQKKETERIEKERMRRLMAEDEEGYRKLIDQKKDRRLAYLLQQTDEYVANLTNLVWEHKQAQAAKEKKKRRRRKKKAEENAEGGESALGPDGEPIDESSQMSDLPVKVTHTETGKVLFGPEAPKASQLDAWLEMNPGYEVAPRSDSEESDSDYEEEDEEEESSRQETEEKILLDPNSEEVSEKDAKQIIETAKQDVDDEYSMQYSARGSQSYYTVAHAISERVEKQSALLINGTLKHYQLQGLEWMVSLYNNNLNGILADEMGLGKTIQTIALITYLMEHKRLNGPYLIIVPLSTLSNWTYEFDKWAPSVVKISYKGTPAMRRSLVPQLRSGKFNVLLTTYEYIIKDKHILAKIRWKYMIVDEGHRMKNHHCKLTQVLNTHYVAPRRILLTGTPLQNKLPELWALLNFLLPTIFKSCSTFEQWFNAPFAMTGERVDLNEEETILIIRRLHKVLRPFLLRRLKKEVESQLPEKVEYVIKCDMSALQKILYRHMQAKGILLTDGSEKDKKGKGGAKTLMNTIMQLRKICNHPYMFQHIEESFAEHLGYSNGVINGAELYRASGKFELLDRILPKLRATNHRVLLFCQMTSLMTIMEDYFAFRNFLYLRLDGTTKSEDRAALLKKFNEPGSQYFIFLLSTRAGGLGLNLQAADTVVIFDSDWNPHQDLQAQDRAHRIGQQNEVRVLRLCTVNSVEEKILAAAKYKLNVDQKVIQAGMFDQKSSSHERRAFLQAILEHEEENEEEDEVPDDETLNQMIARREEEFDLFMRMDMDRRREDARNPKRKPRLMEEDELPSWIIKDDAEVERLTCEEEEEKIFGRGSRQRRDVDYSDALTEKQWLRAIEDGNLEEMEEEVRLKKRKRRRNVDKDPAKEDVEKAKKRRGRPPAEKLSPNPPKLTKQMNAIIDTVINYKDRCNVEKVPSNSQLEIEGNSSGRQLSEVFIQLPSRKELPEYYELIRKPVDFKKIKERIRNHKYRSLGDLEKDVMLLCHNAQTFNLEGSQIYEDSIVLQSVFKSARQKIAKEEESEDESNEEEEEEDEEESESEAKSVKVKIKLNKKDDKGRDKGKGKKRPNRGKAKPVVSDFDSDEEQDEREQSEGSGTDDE

SMILES	Dmax [1] [%]	BRM HiBit Degradation Maximum (%) (HiBit-BRM fusion protein)
Nc1nnc(-c2ccccc2O)cc1OCCC12CC(NC(=O)CCCCOc3cccc4c3C(=O)N(C3CCC(=O)NC3=O)C4=O)(C1)C2 (stereo not shown) [Compound 19, N-(3-(2-((3-amino-6-(2-hydroxyphenyl)pyridazin-4-yl)oxy)ethyl)bicyclo[1.1.1]pentan-1-yl)-5-((2-(2,6-dioxopiperidin-3-yl)-1,3-dioxoisoindolin-4-yl)oxy)pentanamide]	< 50	C (“C” indicates maximum degradation < 50%)
Nc1nnc(-c2ccccc2O)cc1OCCC12CC(NC(=O)CCCCCCOc3cccc4c3C(=O)N(C3CCC(=O)NC3=O)C4=O)(C1)C2 (stereo not shown) [Compound 20, N-[3-(2-[[3-amino-6-(2-hydroxyphenyl)pyridazin-4-yl]oxy]ethyl)bicyclo[1.1.1]pentan-1-yl]-7-[[2-(2,6-dioxopiperidin-3-yl)-1,3-dioxoisoindol-4-yl]oxy]heptanamide]	< 50	C (“C” indicates maximum degradation < 50%)
Nc1nnc(-c2ccccc2O)cc1OCCC12CC(NC(=O)CCCCCCCOc3cccc4c3C(=O)N(C3CCC(=O)NC3=O)C4=O)(C1)C2 (stereo not shown) [Compound 21, N-[3-(2-[[3-amino-6-(2-hydroxyphenyl)pyridazin-4-yl]oxy]ethyl)bicyclo[1.1.1]pentan-1-yl]-8-[[2-(2,6-dioxopiperidin-3-yl)-1,3-dioxoisoindol-4-yl]oxy]octanamide]	< 50	C (“C” indicates maximum degradation < 50%)
Nc1nnc(-c2ccccc2O)cc1OCCC12CC(NC(=O)CCCCCCCCNc3cccc4c3C(=O)N(C3CCC(=O)NC3=O)C4=O)(C1)C2 (stereo not shown) [Compound 23, N-[3-(2-[[3-amino-6-(2-hydroxyphenyl)pyridazin-4-yl]oxy]ethyl)bicyclo[1.1.1]pentan-1-yl]-9-[[2-(2,6-dioxopiperidin-3-yl)-1,3-dioxoisoindol-4-yl]amino]nonanamide]	< 50	C (“C” indicates maximum degradation < 50%)
Nc1nnc(-c2ccccc2O)cc1OCCC12CC(NC(=O)CCCCCCCCCCNc3ccc4c(c3)C(=O)N(C3CCC(=O)NC3=O)C4=O)(C1)C2 (stereo not shown) [Compound 26, N-[3-(2-[[3-amino-6-(2-hydroxyphenyl)pyridazin-4-yl]oxy]ethyl)bicyclo[1.1.1]pentan-1-yl]-11-[[2-(2,6-dioxopiperidin-3-yl)-1,3-dioxoisoindol-5-yl]amino]undecanamide]	< 50	C (“C” indicates maximum degradation < 50%)
Nc1nnc(-c2ccccc2O)cc1OCCC12CC(NC(=O)C3CC3CNC(=O)COc3cccc4c3C(=O)N(C3CCC(=O)NC3=O)C4=O)(C1)C2 (stereo not shown) [Compound 28, N-[3-(2-[[3-amino-6-(2-hydroxyphenyl)pyridazin-4-yl]oxy]ethyl)bicyclo[1.1.1]pentan-1-yl]-2-[(2-[[2-(2,6-dioxopiperidin-3-yl)-1,3-dioxoisoindol-4-yl]oxy]acetamido)methyl]cyclopropane-1-carboxamide]	< 50	C (“C” indicates maximum degradation < 50%)
Nc1nnc(-c2ccccc2O)cc1OCCC12CC(NC(=O)C3CC3CNC(=O)COc3ccc4c(c3)C(=O)N(C3CCC(=O)NC3=O)C4=O)(C1)C2 (stereo not shown) [Compound 29, N-(3-(2-((3-amino-6-(2-hydroxyphenyl)pyridazin-4-yl)oxy)ethyl)bicyclo[1.1.1]pentan-1-yl)-2-((2-((2-(2,6-dioxopiperidin-3-yl)-1,3-dioxoisoindolin-5-yl)oxy)acetamido)methyl)cyclopropane-1-carboxamide]	< 50	C (“C” indicates maximum degradation < 50%)
Nc1nnc(-c2ccccc2O)cc1OCCC12CC(NC(=O)CCOCCOCCOc3cccc4c3C(=O)N(C3CCC(=O)NC3=O)C4=O)(C1)C2 (stereo not shown) [Compound 30, N-(3-(2-((3-amino-6-(2-hydroxyphenyl)pyridazin-4-yl)oxy)ethyl)bicyclo[1.1.1]pentan-1-yl)-3-(2-(2-((2-(2,6-dioxopiperidin-3-yl)-1,3-dioxoisoindolin-4-yl)oxy)ethoxy)ethoxy)propanamide]	< 50	C (“C” indicates maximum degradation < 50%)

Further lines, with some results ahead:

Dmax [1] [%]	SMILES	BRM HiBit Degradation Maximum (%) (HiBit-BRM fusion protein)
< 50	Nc1nnc(-c2ccccc2O)cc1OCCC12CC(NC(=O)CCCOc3cccc4c3C(=O)N(C3CCC(=O)NC3=O)C4=O)(C1)C2 (stereo not shown) [Compound 18, N-(3-(2-((3-amino-6-(2-hydroxyphenyl)pyridazin-4-yl)oxy)ethyl)bicyclo[1.1.1]pentan-1-yl)-4-((2-(2,6-dioxopiperidin-3-yl)-1,3-dioxoisoindolin-4-yl)oxy)butanamide]	C (“C” indicates maximum degradation < 50%)
< 50	Nc1nnc(-c2ccccc2O)cc1OCCC12CC(NC(=O)CCOCCOCCNc3ccc4c(c3)C(=O)N(C3CCC(=O)NC3=O)C4=O)(C1)C2 (stereo not shown) [Compound 22, N-[3-(2-[[3-amino-6-(2-hydroxyphenyl)pyridazin-4-yl]oxy]ethyl)bicyclo[1.1.1]pentan-1-yl]-3-[2-(2-[[2-(2,6-dioxopiperidin-3-yl)-1,3-dioxoisoindol-5-yl]amino]ethoxy)ethoxy]propanamide]	C (“C” indicates maximum degradation < 50%)
< 50	Nc1nnc(-c2ccccc2O)cc1OCCC12CC(NC(=O)CCCCCCCCCCNc3cccc4c3C(=O)N(C3CCC(=O)NC3=O)C4=O)(C1)C2 (stereo not shown) [Compound 24, N-[3-(2-[[3-amino-6-(2-hydroxyphenyl)pyridazin-4-yl]oxy]ethyl)bicyclo[1.1.1]pentan-1-yl]-11-[[2-(2,6-dioxopiperidin-3-yl)-1,3-dioxoisoindol-4-yl]amino]undecanamide]	C (“C” indicates maximum degradation < 50%)
< 50	Nc1nnc(-c2ccccc2O)cc1OCCC12CC(NC(=O)CCCCCCCCNc3ccc4c(c3)C(=O)N(C3CCC(=O)NC3=O)C4=O)(C1)C2 (stereo not shown) [Compound 25, N-[3-(2-[[3-amino-6-(2-hydroxyphenyl)pyridazin-4-yl]oxy]ethyl)bicyclo[1.1.1]pentan-1-yl]-9-[[2-(2,6-dioxopiperidin-3-yl)-1,3-dioxoisoindol-5-yl]amino]nonanamide]	C (“C” indicates maximum degradation < 50%)
< 50	Nc1nnc(-c2ccccc2O)cc1OCCC12CC(NC(=O)CCOCCOCCNc3cccc4c3C(=O)N(C3CCC(=O)NC3=O)C4=O)(C1)C2 (stereo not shown) [Compound 27, N-[3-(2-[[3-amino-6-(2-hydroxyphenyl)pyridazin-4-yl]oxy]ethyl)bicyclo[1.1.1]pentan-1-yl]-3-[2-(2-[[2-(2,6-dioxopiperidin-3-yl)-1,3-dioxoisoindol-4-yl]amino]ethoxy)ethoxy]propanamide]	C (“C” indicates maximum degradation < 50%)
< 50	Nc1nnc(-c2ccccc2O)cc1OCCC12CC(NC(=O)CCOCCOCCOc3ccc4c(c3)C(=O)N(C3CCC(=O)NC3=O)C4=O)(C1)C2 (stereo not shown) [Compound 31, N-(3-(2-((3-amino-6-(2-hydroxyphenyl)pyridazin-4-yl)oxy)ethyl)bicyclo[1.1.1]pentan-1-yl)-3-(2-(2-((2-(2,6-dioxopiperidin-3-yl)-1,3-dioxoisoindolin-5-yl)oxy)ethoxy)ethoxy)propanamide]	C (“C” indicates maximum degradation < 50%)
